Reference: US20230293517A1, “ANTAGONIST COMPOUNDS” (AdoRx Therapeutics Limited, priority 2020, published 2023)
pKi: −log10 of the molar value.

Assays:
[1] = biological target: human Adenosine A3 receptor (Homo sapiens (Human), UniProt P0DMS8); assay: Adenosine receptor TR-FRET binding assay (A3); conditions: inhibition of binding of 100 nM CA200645, CHO cell membranes
Method: (§1) Biological Example 1—Adenosine Receptor Time-Resolved Fluorescence Resonance Energy Transfer (TRFRET) Binding Assay
(§2) All FRET binding experiments were conducted at room temperature in white 384-well plates, in assay binding buffer containing 1×LabMed (Cisbio, France), 100 μg/mL saponin, 1% DMSO and 0.02% pluronic acid. Binding of the fluorescently labelled Adenosine receptor antagonist XAC (CA200645, FRET acceptor) to terbium-labelled A1, A2a, A2b and A3 adenosine receptors (FRET donors) was detected by time-resolved FRET due to the close proximity of the donor and acceptor in a binding event. To investigate the ability of unlabelled test compounds to bind to Adenosine A1, A2a, A2b and A3 receptors, dose response curves were constructed that determined the ability of a range of concentrations to inhibit the binding of 30 nM CA200645 to the A2b receptor and 100 nM CA200645 to the A1, A2a, and A3 receptor.
(§3) Serial dilution (1:3 dilutions) of test compounds in neat DMSO and transfer of a 400 nL sample of test compound into the assay plate was carried out using the Mosquito (TTP Labtech, UK). The compound samples were incubated for 2 hours at room temperature with a fixed concentration of CA200645 defined for each receptor (see above) and CHO cell membranes containing the human Adenosine A1 (0.5 μg/well), A2a (0.3 μg/well), A2b (1 μg/well) or A3 (1 μg/well) receptor in 40 μL of assay buffer. Total and non-specific binding of CA200645 was determined in the absence and presence of 10 μM XAC, respectively. Following 2 hours incubation, the level of CA200645 binding was detected on a Pherastar FSX (BMG Labtech, Germany) using standard TR-FRET settings. The terbium donor was excited with three laser flashes at a wavelength of 337 nm, and donor and acceptor emission was detected at 620 nm and 665 nm wavelengths, respectively. FRET ratios were obtained by multiplying the acceptor/donor ratio value by 10,000. Specific binding was determined by subtracting the non-specific binding FRET ratio from the total binding FRET ratio. Compound IC50 curves were analysed using GraphPad Prism 7.0 (GraphPad, USA) and Ki affinity values were determined from the obtained IC50 values using the method of Cheng and Prusoff.

[2] = biological target: human Adenosine A2b receptor (Homo sapiens (Human), UniProt P29275); assay: Adenosine receptor TR-FRET binding assay (A2b); conditions: TR-FRET, inhibition of binding of 30 nM CA200645, CHO cell membranes
Sequence of human Adenosine A2b receptor (P29275 whole entry): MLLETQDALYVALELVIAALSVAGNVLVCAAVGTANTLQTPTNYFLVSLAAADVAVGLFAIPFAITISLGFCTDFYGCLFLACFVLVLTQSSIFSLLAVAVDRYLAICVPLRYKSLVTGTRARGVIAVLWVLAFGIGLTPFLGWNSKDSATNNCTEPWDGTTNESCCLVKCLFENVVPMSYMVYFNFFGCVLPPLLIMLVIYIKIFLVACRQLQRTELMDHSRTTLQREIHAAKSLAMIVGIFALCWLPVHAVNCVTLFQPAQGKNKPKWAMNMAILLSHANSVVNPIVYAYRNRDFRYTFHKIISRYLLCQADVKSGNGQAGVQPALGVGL
Method: as §1, §2, §3

[3] = biological target: human Adenosine A1 receptor (Homo sapiens (Human), UniProt P30542); assay: Adenosine receptor TR-FRET binding assay (A1); conditions: inhibition of binding of 100 nM CA200645, CHO cell membranes
Sequence of human Adenosine A1 receptor (P30542 whole entry): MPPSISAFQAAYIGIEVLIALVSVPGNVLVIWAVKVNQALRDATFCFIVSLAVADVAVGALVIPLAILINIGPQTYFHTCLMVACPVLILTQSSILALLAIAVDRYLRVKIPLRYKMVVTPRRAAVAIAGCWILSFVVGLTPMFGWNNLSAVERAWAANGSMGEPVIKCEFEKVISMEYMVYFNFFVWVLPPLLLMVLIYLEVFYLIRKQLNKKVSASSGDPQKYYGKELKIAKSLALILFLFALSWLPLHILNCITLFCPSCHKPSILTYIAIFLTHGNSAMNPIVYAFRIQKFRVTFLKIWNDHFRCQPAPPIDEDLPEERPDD
Method: as §1, §2, §3

[4] = biological target: human Adenosine A2a receptor (Homo sapiens (Human), UniProt P29274); assay: Adenosine receptor TR-FRET binding assay (A2a); conditions: inhibition of binding of 100 nM CA200645, CHO cell membranes
Sequence of human Adenosine A2a receptor (P29274 whole entry): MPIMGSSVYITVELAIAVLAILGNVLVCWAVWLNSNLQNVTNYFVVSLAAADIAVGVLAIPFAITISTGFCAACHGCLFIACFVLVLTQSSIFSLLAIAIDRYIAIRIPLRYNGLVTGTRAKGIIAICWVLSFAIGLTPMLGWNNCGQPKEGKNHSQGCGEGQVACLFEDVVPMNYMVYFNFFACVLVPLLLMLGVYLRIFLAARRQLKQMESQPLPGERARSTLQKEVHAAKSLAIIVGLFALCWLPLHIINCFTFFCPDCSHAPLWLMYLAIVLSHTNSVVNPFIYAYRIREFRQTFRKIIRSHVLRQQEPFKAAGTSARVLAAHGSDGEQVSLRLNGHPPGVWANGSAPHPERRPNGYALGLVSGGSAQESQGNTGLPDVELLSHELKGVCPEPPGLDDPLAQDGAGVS
Method: as §1, §2, §3

Sequence of human Adenosine A3 receptor (P0DMS8 whole entry): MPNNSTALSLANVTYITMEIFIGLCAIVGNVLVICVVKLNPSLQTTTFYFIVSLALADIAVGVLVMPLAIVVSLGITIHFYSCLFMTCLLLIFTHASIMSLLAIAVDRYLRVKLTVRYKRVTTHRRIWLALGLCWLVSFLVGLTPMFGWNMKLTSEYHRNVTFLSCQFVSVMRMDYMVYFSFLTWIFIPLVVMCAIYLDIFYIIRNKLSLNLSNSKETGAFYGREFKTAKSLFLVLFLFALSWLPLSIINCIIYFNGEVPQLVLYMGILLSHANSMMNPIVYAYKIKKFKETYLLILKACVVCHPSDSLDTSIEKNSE

Row | Structure (SMILES) | pKi [1] | pKi [2] | pKi [3] | pKi [4]
1 | Cc1cc(-c2sc(NC(=O)N3CCO[C@H](CO)C3)nc2-c2cccc(C#N)c2)cc(C)n1 [Example 4.21, (2S)-N-[4-(3-Cyanophenyl)-5-(2,6-dimethyl-4-pyridyl)thiazol-2-yl]-2-(hydroxymethyl)morpholine-4-carboxamide] | 6.58 | 9.00 | 8.00 | 9.52
2 | Cc1cc(-c2sc(NC(=O)N3CCS(=O)(=O)CC3)nc2-c2cccc(C#N)c2)cc(C)n1 [Example 4.27, N-[4-(3-Cyanophenyl)-5-(2,6-dimethyl-4-pyridyl)thiazol-2-yl]-1,1-dioxo-1,4-thiazinane-4-carboxamide] | 6.37 | 9.10 | 8.22 | 10.00
3 | Cc1cc(-c2sc(NC(=O)N3CCN[C@@H](C(=O)O)C3)nc2-c2cccc(C#N)c2)cc(Cl)n1 [Example 5, (2R)-4-[[5-(2-Chloro-6-methyl-4-pyridyl)-4-(3-cyanophenyl)thiazol-2-yl]carbamoyl]piperazine-2-carboxylic acid] | 6.16 | 8.26 | 6.22 | 8.24
4 | COC(=O)[C@H]1CN(C(=O)Nc2nc(-c3cccc(C#N)c3)c(-c3cc(C)nc(Cl)c3)s2)CCN1 [Example 5.1, Methyl (2R)-4-[[5-(2-chloro-6-methyl-4-pyridyl)-4-(3-cyanophenyl)thiazol-2-yl]carbamoyl]piperazine-2-carboxylate] | 6.64 | 8.80 | 7.35 | 9.21
5 | Cc1cc(-c2sc(NC(=O)N3CCN[C@@H](CO)C3)nc2-c2cccc(C#N)c2)cc(Cl)n1 [Example 5.3, (3R)-N-[5-(2-Chloro-6-methyl-4-pyridyl)-4-(3-cyanophenyl)thiazol-2-yl]-3-(hydroxymethyl)piperazine-1-carboxamide] | 7.01 | 8.68 | 7.05 | 8.64
6 | Cc1cc(-c2sc(NC(=O)N3CC[C@@H](C(N)=O)C3)nc2-c2cccc(C#N)c2)cc(C)n1 [Example 6.8, (3R)-N1-[4-(3-Cyanophenyl)-5-(2,6-dimethyl-4-pyridyl)thiazol-2-yl]pyrrolidine-1,3-dicarboxamide] | 6.51 | 8.96 | 7.64 | 9.14
7 | Cc1cc(-c2sc(NC(=O)N3CC(=O)N4CCCCC4C3)nc2-c2cccc(C#N)c2)cc(C)n1 (stereo not shown) [Example 6.15, N-[4-(3-Cyanophenyl)-5-(2,6-dimethyl-4-pyridyl)thiazol-2-yl]-4-oxo-3,6,7,8,9,9a-hexahydro-1H-pyrido[1,2-a]pyrazine-2-carboxamide] | 6.59 | 8.23 | 6.58 | 8.69
8 | Cc1cc(-c2sc(NC(=O)N3CC[S+]([O-])CC3)nc2-c2cccc(C#N)c2)cc(C(F)F)n1 [Example 6.19, N-[4-(3-Cyanophenyl)-5-[2-(difluoromethyl)-6-methyl-4-pyridyl]thiazol-2-yl]-1-oxo-1,4-thiazinane-4-carboxamide] | 6.89 | 8.96 | 7.70 | 9.21
9 | Cc1cc(-c2sc(NC(=O)N3CCN4C(=O)NC(=O)C4C3)nc2-c2cccc(C#N)c2)cc(C)n1 (stereo not shown) [Example 6.23, N-[4-(3-Cyanophenyl)-5-(2,6-dimethyl-4-pyridyl)thiazol-2-yl]-1,3-dioxo-5,6,8,8a-tetrahydroimidazo[1,5-a]pyrazine-7-carboxamide] | 6.40 | 8.19 | 7.04 | 8.52
10 | Cc1cc(-c2sc(NC(=O)N3CCn4ccnc4C3)nc2-c2cccc(C#N)c2)cc(C)n1 [Example 6.27, N-[4-(3-Cyanophenyl)-5-(2,6-dimethyl-4-pyridyl)thiazol-2-yl]-6,8-dihydro-5H-imidazo[1,2-a]pyrazine-7-carboxamide] | 6.82 | 8.85 | 7.35 | 9.00
11 | Cc1cc(-c2sc(NC(=O)N3CC4(CCOC(=O)N4)C3)nc2-c2cccc(C#N)c2)cc(C)n1 [Example 6.34, N-[4-(3-Cyanophenyl)-5-(2,6-dimethyl-4-pyridyl)thiazol-2-yl]-6-oxo-7-oxa-2,5-diazaspiro[3.5]nonane-2-carboxamide] | 6.78 | 8.68 | 7.59 | 9.19

More lines, in order of rising pKi [1], values ahead:

Row | pKi [1] | pKi [2] | pKi [3] | pKi [4] | Structure (SMILES)
12 | 6.25 | 7.75 | 6.37 | 8.40 | Cc1cc(-c2sc(NC(=O)N3CCN4CCNC(=O)C4C3)nc2-c2cccc(C#N)c2)cc(C)n1 (stereo not shown) [Example 6.16, N-[4-(3-Cyanophenyl)-5-(2,6-dimethyl-4-pyridyl)thiazol-2-yl]-9-oxo-3,4,6,7,8,9a-hexahydro-1H-pyrazino[1,2-a]pyrazine-2-carboxamide]
13 | 6.37 | 8.33 | 6.68 | 8.43 | Cc1cc(-c2sc(NC(=O)N3CCN(CCO)C(=O)C3)nc2-c2cccc(C#N)c2)cc(C)n1 [Example 4.31, N-[4-(3-Cyanophenyl)-5-(2,6-dimethyl-4-pyridyl)thiazol-2-yl]-4-(2-hydroxyethyl)-3-oxo-piperazine-1-carboxamide]
14 | 6.39 | 8.23 | 7.21 | 8.72 | Cc1cc(-c2sc(NC(=O)N3CC(C(C)(C)O)C3)nc2-c2cccc(C#N)c2)cc(C)n1 [Example 4.33, N-[4-(3-Cyanophenyl)-5-(2,6-dimethyl-4-pyridyl)thiazol-2-yl]-3-(1-hydroxy-1-methyl-ethyl)azetidine-1-carboxamide]
15 | 6.57 | 8.44 | 7.29 | 8.44 | Cc1cc(-c2sc(NC(=O)N3CCC(C(=O)NCCO)CC3)nc2-c2cccc(C#N)c2)cc(C)n1 [Example 6.33, N1-[4-(3-Cyanophenyl)-5-(2,6-dimethyl-4-pyridyl)thiazol-2-yl]-N4-(2-hydroxyethyl)piperidine-1,4-dicarboxamide]
16 | 6.61 | 8.74 | 7.32 | 8.54 | Cc1cc(-c2sc(NC(=O)N3CCN[C@@H](C(N)=O)C3)nc2-c2cccc(C#N)c2)cc(Cl)n1 [Example 5.7, (3R)-N1-[5-(2-Chloro-6-methyl-4-pyridyl)-4-(3-cyanophenyl)thiazol-2-yl]piperazine-1,3-dicarboxamide]
17 | 6.65 | 8.49 | 7.49 | 8.32 | CNC(=O)C1CCN(C(=O)Nc2nc(-c3cccc(C#N)c3)c(-c3cc(C)nc(C)c3)s2)CC1 [Example 6.28, N1-[4-(3-Cyanophenyl)-5-(2,6-dimethyl-4-pyridyl)thiazol-2-yl]-N4-methyl-piperidine-1,4-dicarboxamide]
18 | 6.73 | 8.68 | 7.72 | 8.82 | Cc1cc(-c2sc(NC(=O)N3CCC(c4ncno4)CC3)nc2-c2cccc(C#N)c2)cc(C)n1 [Example 6.31, N-[4-(3-Cyanophenyl)-5-(2,6-dimethyl-4-pyridyl)thiazol-2-yl]-4-(1,2,4-oxadiazol-5-yl)piperidine-1-carboxamide]
19 | 6.90 | 8.82 | 7.49 | 9.06 | Cc1cc(-c2sc(NC(=O)N3CC[C@H](C(N)=O)C3)nc2-c2cccc(C#N)c2)cc(C)n1 [Example 6.3, (3S)-N1-[4-(3-Cyanophenyl)-5-(2,6-dimethyl-4-pyridyl)thiazol-2-yl]pyrrolidine-1,3-dicarboxamide]
20 | 6.97 | 8.74 | 8.40 | 9.42 | Cc1cc(-c2sc(NC(=O)N3CCC(c4ncon4)CC3)nc2-c2cccc(C#N)c2)cc(C)n1 [Example 6.22, N-[4-(3-Cyanophenyl)-5-(2,6-dimethyl-4-pyridyl)thiazol-2-yl]-4-(1,2,4-oxadiazol-3-yl)piperidine-1-carboxamide]
21 | 7.02 | 8.89 | 8.22 | 9.07 | Cc1cc(-c2sc(NC(=O)N3CCC(n4cccn4)CC3)nc2-c2cccc(C#N)c2)cc(C)n1 [Example 6.21, N-[4-(3-Cyanophenyl)-5-(2,6-dimethyl-4-pyridyl)thiazol-2-yl]-4-pyrazol-1-yl-piperidine-1-carboxamide]
22 | 7.03 | 8.96 | 8.70 | 8.76 | Cc1cc(-c2sc(NC(=O)N3CCC(c4ncc[nH]4)CC3)nc2-c2cccc(C#N)c2)cc(C)n1 [Example 6.25, N-[4-(3-Cyanophenyl)-5-(2,6-dimethyl-4-pyridyl)thiazol-2-yl]-4-(1H-imidazol-2-yl)piperidine-1-carboxamide]
